Data reported in ChEMBL document CHEMBL1641578, “Design and synthesis of 3-(azol-1-yl)phenylpropanes as microbicidal spermicides for prophylactic contraception” (Bioorg Med Chem Lett, 2011).
≈ marks a conversion by molar mass, not a printed value.

Experiments:
[1] = Toxicity against Lactobacillus acidophilus at 200 ug/ml after 24 hrs by microplate reader
HeLa = experiment: Cytotoxicity against human HeLa cells at 200 ug/ml after 24 hrs by MTT based colorimetric assay; type: cell-based
Spermatozoa = experiment: Spermicidal activity against human spermatozoa assessed as immobilization measured for 60 seconds by visual scoring; type: functional; parameters: concentration or dose not given beside the values
Trichomonas vaginalis = experiment: Antitrichomonas activity against Trichomonas vaginalis after 48 hrs by trypan blue exclusion assay; type: functional
Candida albicans [2] = experiment: Antifungal activity against Candida albicans after 48 hrs by broth microdilution assay; type: functional
Candida parapsilosis = experiment: Antifungal activity against Candida parapsilosis after 48 hrs by broth microdilution assay; type: functional; conditions: Lodderomyces parapsilosis
Candida albicans [3] = experiment: Antifungal activity against Candida albicans MTCC-183 after 48 hrs by broth microdilution assay; type: functional; conditions: MTCC-183, 48 h
Candida albicans [4] = experiment: Antifungal activity against Candida albicans isolate CDRI after 48 hrs by broth microdilution assay; type: functional
Candida albicans [5] = experiment: Antifungal activity against Candida albicans NCIM-3557 after 48 hrs by broth microdilution assay; type: functional; conditions: NCIM-3557, 48 h

Row | Structure (SMILES) | Activity [1] | Activity (HeLa) | Activity (Spermatozoa) [%] | MIC (Trichomonas vaginalis) [µg/mL] | MIC (Candida albicans [2]) [µg/mL] | MIC (Candida parapsilosis) [µg/mL] | MIC (Candida albicans [3]) [µg/mL] | MIC (Candida albicans [4]) [µg/mL] | MIC (Candida albicans [5]) [µg/mL]
1 | O=C(CCn1ccnc1)c1ccccc1 | Non-toxic | Non-toxic | 100 | > 200 | > 50 | > 50 | > 50 | 50 (≈ 250 µM) | > 50
2 | O=C(CCn1cnc2ccccc21)c1ccccc1 | Non-toxic | Non-toxic | 100 | 200 (≈ 799 µM) | 25 (≈ 99.9 µM) | 50 (≈ 200 µM) | > 50 | 25 (≈ 99.9 µM) | 50 (≈ 200 µM)
3 | O=C(CCn1cncn1)c1ccccc1 | Non-toxic | Non-toxic | 60 | > 200 | > 50 | > 50 | > 50 | 50 (≈ 248 µM) | > 50
4 | O=C(CCn1nnc2ccccc21)c1ccccc1 | Non-toxic | Non-toxic | 80 | 200 (≈ 796 µM) | > 50 | 50 (≈ 199 µM) | > 50 | > 50 | 50 (≈ 199 µM)
5 | Cc1nccn1CCC(=O)c1ccccc1 | Non-toxic | Toxic | 100 | > 200 | > 50 | > 50 | > 50 | 50 (≈ 233 µM) | > 50
6 | O=C(CCn1cnc([N+](=O)[O-])c1)c1ccccc1 | Non-toxic | Non-toxic | 100 | 25 (≈ 102 µM) | 50 (≈ 204 µM) | > 50 | > 50 | 50 (≈ 204 µM) | > 50
7 | Cc1ncc([N+](=O)[O-])n1CCC(=O)c1ccccc1 | Non-toxic | Non-toxic | 90 | 50 (≈ 193 µM) | > 50 | > 50 | > 50 | 50 (≈ 193 µM) | > 50
8 | OC(CCn1ccnc1)c1ccccc1 (stereo not given) | Non-toxic | Non-toxic | 90 | > 200 | > 50 | > 50 | > 50 | 50 (≈ 247 µM) | > 50
9 | OC(CCn1cnc2ccccc21)c1ccccc1 (stereo not given) | Non-toxic | Non-toxic | 90 | > 200 | > 50 | > 50 | > 50 | 50 (≈ 198 µM) | > 50
10 | OC(CCn1cncn1)c1ccccc1 (stereo not given) | Non-toxic | Non-toxic | 70 | > 200 | > 50 | > 50 | > 50 | > 50 | > 50
11 | OC(CCn1nnc2ccccc21)c1ccccc1 (stereo not given) | Non-toxic | Non-toxic | 100 | > 200 | > 50 | > 50 | > 50 | 50 (≈ 197 µM) | > 50
12 | Cc1nccn1CCC(O)c1ccccc1 (stereo not given) | Non-toxic | Non-toxic | 100 | > 200 | > 50 | > 50 | > 50 | > 50 | > 50
13 | O=[N+]([O-])c1cn(CCC(O)c2ccccc2)cn1 (stereo not given) | Non-toxic | Non-toxic | 95 | 25 (≈ 101 µM) | > 50 | > 50 | > 50 | 50 (≈ 202 µM) | > 50
14 | Cc1ncc([N+](=O)[O-])n1CCC(O)c1ccccc1 (stereo not given) | Non-toxic | Non-toxic | 70 | 50 (≈ 191 µM) | > 50 | > 50 | > 50 | > 50 | > 50
15 | FC(F)(F)c1ccc(OC(CCn2cnc3ccccc32)c2ccccc2)cc1 (stereo not given) | Toxic | Toxic | 50 | 25 (≈ 63.1 µM) | > 50 | > 50 | > 50 | > 50 | > 50
16 | FC(F)(F)c1ccc(OC(CCn2cncn2)c2ccccc2)cc1 (stereo not given) | Toxic | Toxic | 100 | 50 (≈ 144 µM) | 50 (≈ 144 µM) | > 50 | 50 (≈ 144 µM) | > 50 | > 50
17 | FC(F)(F)c1ccc(OC(CCn2nnc3ccccc32)c2ccccc2)cc1 (stereo not given) | Non-toxic | Non-toxic | 70 | > 200 | > 50 | > 50 | > 50 | > 50 | > 50
18 | Cc1nccn1CCC(Oc1ccc(C(F)(F)F)cc1)c1ccccc1 (stereo not given) | Toxic | Toxic | 100 | 25 (≈ 69.4 µM) | 25 (≈ 69.4 µM) | 50 (≈ 139 µM) | 25 (≈ 69.4 µM) | 50 (≈ 139 µM) | 50 (≈ 139 µM)
19 | O=[N+]([O-])c1cn(CCC(Oc2ccc(C(F)(F)F)cc2)c2ccccc2)cn1 (stereo not given) | Non-toxic | Non-toxic | 40 | 12.5 (≈ 31.9 µM) | > 50 | > 50 | > 50 | > 50 | > 50
20 | Cc1ncc([N+](=O)[O-])n1CCC(Oc1ccc(C(F)(F)F)cc1)c1ccccc1 (stereo not given) | Non-toxic | Non-toxic | 70 | 25 (≈ 61.7 µM) | > 50 | > 50 | > 50 | > 50 | > 50
21 | C(=C\c1ccccc1)/Cn1ccnc1 | Non-toxic | Non-toxic | 100 | > 200 | > 50 | 50 (≈ 271 µM) | > 50 | 25 (≈ 136 µM) | > 50
22 | O=[N+]([O-])c1cn(C/C=C/c2ccccc2)cn1 | Non-toxic | Non-toxic | 80 | 25 (≈ 109 µM) | > 50 | > 50 | > 50 | > 50 | > 50
23 | Cc1ncc([N+](=O)[O-])n1C/C=C/c1ccccc1 | Non-toxic | Non-toxic | 90 | 25 (≈ 103 µM) | 50 (≈ 206 µM) | > 50 | > 50 | > 50 | > 50
24 | FC(F)(F)c1ccc(OC/C=C/c2ccccc2)cc1 | Non-toxic | Non-toxic | 90 | > 200 | > 50 | > 50 | > 50 | 50 (≈ 180 µM) | > 50
25 | FC(F)(F)c1ccc(OC(CCn2ccnc2)c2ccccc2)cc1 (stereo not given) | Toxic | Toxic | 100 | 12.5 (≈ 36.1 µM) | 12.5 (≈ 36.1 µM) | 50 (≈ 144 µM) | 50 (≈ 144 µM) | 50 (≈ 144 µM) | 50 (≈ 144 µM)
26 | OC(Cn1cncn1)(Cn1cncn1)c1ccc(F)cc1F [FLUCONAZOLE] |  |  |  |  | 0.5 (≈ 1.63 µM) | 0.5 (≈ 1.63 µM) | 0.25 (≈ 0.816 µM) | 0.25 (≈ 0.816 µM) | 0.25 (≈ 0.816 µM)
27 | Cc1ncc([N+](=O)[O-])n1CCO [METRONIDAZOLE] |  |  |  | 2 (≈ 11.7 µM) |  |  |  |  | 
28 | CCCCCCCCCc1ccc(OCCOCCOCCOCCOCCOCCOCCOCCOCCO)cc1 [NONOXYNOL 9] | Non-toxic | Non-toxic | 100 | 37.4 (≈ 60.6 µM) | > 50 | 50 (≈ 81.1 µM) | > 50 | > 50 | > 50
